For data set [1], the system named is RAW264.7. Put plainly: Anti inflammatory activity in LPS-induced mouse RAW264.7 cells assessed as inhibition of NO production at 80 uM preincubated with LPS for 4 hrs followed by compound addition and measured after 18 hrs by griess reagent based assay. Format: functional. Further details: scale not given: the % may be the effect or the level left. A general note: Griess reagent forms a coloured azo dye with nitrite.

Data set [2] in a line: Cytotoxicity against mouse RAW264.7 cells assessed as cell survival rate at 100 uM incubated for 24 hrs by MTT assay. Type of data set: toxicity, cell-based. As to conditions: read-out: Activity. (Tetrazolium dyes change colour on reduction, which living cells bring about.)
Data set [3] has as its system RAW264.7. Put plainly: Cytotoxicity against mouse RAW264.7 cells assessed as reduction in cell viability at 1 to 40 uM incubated for 24 hrs by MTT assay. Format: toxicity, cell-based. To be noted: raw264.7, 24 h, dose 1-40 µM.
Data set [4] deals with RAW264.7. Put plainly: Anti inflammatory activity in LPS-induced mouse RAW264.7 cells assessed as inhibition of NO production preincubated with LPS for 4 hrs followed by compound addition and measured after 18 hrs by griess reagent based assay. Type of data set: functional, cell-based. As to conditions: for Activity: dose 5-80 µM.
The test system of another data set is Mus musculus. Put plainly: Antiinflammatory activity against xylene-induced ear edema mouse model assessed as swelling rate at 10 mg/kg, iv measured after 30 mins. Type of data set: functional. As to conditions: 0.5 h.
Data set [5] concerns RAW264.7. Put plainly: Anti inflammatory activity in LPS-induced mouse RAW264.7 cells assessed as reduction in iNOS expression at 5 to 80 uM measured for 24 hrs by Western blot analysis. To be noted: dose 5-80 µM. Type of data set: functional, cell-based. (Immunoblotting shows a protein as a band on a membrane.)

Consider 9 compounds from ChEMBL document CHEMBL5370522, “Anti-inflammatory efficacy and relevant SAR investigations of novel chiral pyrazolo isoquinoline derivatives: Design, synthesis, in-vitro, in-vivo, and computational studies targeting iNOS” (Eur J Med Chem, 2023).

Calls of active or inactive are those of the source. No cut-off for these calls is given here.

As a reminder, the IC50 is the midpoint of a concentration-inhibition curve. Take `Cc1ccc(S(=O)(=O)N2C(=O)[C@H](c3ccccc3)[C@H]3c4cccc(Br)c4C=CN32)cc1`: the Activity was 90.52% with RAW264.7 [1], 90% in the data set with RAW264.7 [3] and “Dose-Dependent Effect” in the data set with RAW264.7 [4]. Besides, the viability at 24 h, 100 µM in data set [2] is 92.3%. In addition, the half-maximal inhibitory concentration (IC50) in the data set with RAW264.7 [4] was found to be 47.8 µM.

`Cc1ccc(-c2cc(C(F)(F)F)nn2-c2ccc(S(N)(=O)=O)cc2)cc1` [CELECOXIB]: the Activity with Mus musculus is 70.05%.

Regarding `COc1ccc([C@H]2C(=O)N(S(=O)(=O)c3ccc(C)cc3)N3C=Cc4ccccc4[C@H]23)cc1`, the Activity in the data set with RAW264.7 [1] is 77.09%; with RAW264.7 [4], “Dose-Dependent Effect”. Besides, in data set [2], the viability at 24 h, 100 µM was 87%. Moreover, the IC50 in the data set on RAW264.7 [4] turned out to be 47.8 µM.

Consider `Cc1ccc(S(=O)(=O)N2C(=O)[C@H](c3ccc(F)cc3)[C@H]3c4ccccc4C=CN32)cc1`, for which the figures for the Activity in the data set on RAW264.7 [1], in the data set on Mus musculus and in the data set with RAW264.7 [4] were 73.46%, 64.4% and “Dose-Dependent Effect”, respectively. In addition, the viability at 24 h, 100 µM in data set [2] was found to be 91.7%.

`Cc1ccc(S(=O)(=O)N2C(=O)[C@H](c3cccc(Br)c3)[C@H]3c4cccc(Br)c4C=CN32)cc1`: the results for the Activity with RAW264.7 [1] and in the data set on RAW264.7 [4] were 72.86% and “Dose-Dependent Effect”, respectively. Further, the viability at 24 h, 100 µM in data set [2] came to 81.7%.

Take `Cc1ccc(S(=O)(=O)N2C(=O)[C@H](c3ccc(Br)cc3)[C@H]3c4cccc(Br)c4C=CN32)cc1`: the figures for the Activity with RAW264.7 [1], with RAW264.7 [3] and in the data set with RAW264.7 [4] were 91.61%, 90% and “Dose-Dependent Effect”, respectively. In addition, in the data set on RAW264.7 [5], the result was Active. Further, the viability at 24 h, 100 µM in data set [2] is 92.9%. Moreover, in the data set with RAW264.7 [4], the IC50 was determined as 20.8 µM.

`Cc1ccc(S(=O)(=O)N2C(=O)[C@H](c3ccccc3F)[C@H]3c4cccc(Br)c4C=CN32)cc1`: the Activity in the data set on RAW264.7 [1] is 92.84%; in the data set with RAW264.7 [3], 90%; in the data set with RAW264.7 [4], “Dose-Dependent Effect”. In addition, in data set [2], the viability at 24 h, 100 µM stood at 87.7%.

`Cc1ccc(S(=O)(=O)N2C(=O)[C@H](c3cccc(F)c3)[C@H]3c4cccc(Br)c4C=CN32)cc1`: in the data set with RAW264.7 [4], the IC50 is 33.8 µM and the Activity result was “Dose-Dependent Effect”.

On to `COc1ccc([C@H]2C(=O)N(S(=O)(=O)c3ccc(C)cc3)N3C=Cc4c(Br)cccc4[C@H]23)cc1`, for which the Activity in the data set with RAW264.7 [1] came out at 84.9%. For the same compound, in data set [2], the viability at 24 h, 100 µM worked out at 91.7%. Moreover, in the data set on RAW264.7 [4], the IC50 was determined as 26.7 µM and the Activity entry is “Dose-Dependent Effect”.
